{"source": "patent US11007206B2", "about": "“Cyclic boronic acid ester derivatives and therapeutic uses thereof” (Melinta Subsidiary Corp., priority 2012, dated 2021)", "key": {"K. pneumoniae strains": {"test_system": "K. pneumoniae strains", "assay": "Biapenem MICs of the K. pneumoniae strains used in the infection models (Example 6)", "format": "cell-based", "conditions": "Klebsiella pneumoniae"}, "[1]": {"test_system": "carbapenem-resistant, KPC-producing K. pneumoniae", "assay": "Mouse model of thigh infection, Biapenem +/- Compound I (Example 6)", "format": "in vivo", "conditions": "IP 50 mpk Biapenem +/- 50 mpk Compound I every two hours for 24 hours", "protocol": "Example 6 provides the in vivo efficacy study of the carbapenem Biapenem in combination with Compound I in mouse models of pulmonary and thigh infection due to the carbapenem-resistant, KPC-producing K. pneumoniae.\nFour K. pneumoniae strains with Biapenem MICs ranging between 0.25-64 mg/L were used. Neutropenic mice were infected with ˜10^5 CFU/lung or ˜10^6 CFU/thigh. Intraperitoneal treatments with 50 mpk Biapenem+/−50 mpk Compound I were initiated 2 hours post-infection as a single dose or continued every two hours for 24 hours. Mice were sacrificed on designated time points and colony counts in tissue determined."}}, "note": "Where two headings read alike, the source gives them in different places."}
{"smiles": "C[C@@H](O)[C@H]1C(=O)N2C(C(=O)[O-])=C(SC3Cn4cnc[n+]4C3)[C@H](C)[C@H]12", "note": "(stereo partly shown) [Biapenem]", "values": [{"measurement": "MIC", "setting": "K. pneumoniae strains; ATCC43816, K. pneumoniae strain ATCC 43816, read-out: Biapenem MIC Alone", "result": 0.25, "unit": "µg/mL"}, {"measurement": "MIC", "setting": "K. pneumoniae strains; ATCC43816, K. pneumoniae strain ATCC 43816, with Compound I 5 μg/mL, read-out: Biapenem MIC with Compound I (5 μg/mL)", "result": 0.25, "unit": "µg/mL"}, {"measurement": "MIC", "setting": "K. pneumoniae strains; K. pneumoniae strain KP1004, read-out: Biapenem MIC Alone", "result": 16, "unit": "µg/mL"}, {"measurement": "MIC", "setting": "K. pneumoniae strains; K. pneumoniae strain KP1004, with Compound I 5 μg/mL, read-out: Biapenem MIC with Compound I (5 μg/mL)", "result": "≤ 0.06", "unit": "µg/mL"}, {"measurement": "MIC", "setting": "K. pneumoniae strains; K. pneumoniae strain KP1061, read-out: Biapenem MIC Alone", "result": 32, "unit": "µg/mL"}, {"measurement": "MIC", "setting": "K. pneumoniae strains; K. pneumoniae strain KP1061, with Compound I 5 μg/mL, read-out: Biapenem MIC with Compound I (5 μg/mL)", "result": "≤ 0.06", "unit": "µg/mL"}, {"measurement": "MIC", "setting": "K. pneumoniae strains; K. pneumoniae strain KP1074, read-out: Biapenem MIC Alone", "result": 64, "unit": "µg/mL"}, {"measurement": "MIC", "setting": "K. pneumoniae strains; K. pneumoniae strain KP1074, with Compound I 5 μg/mL, read-out: Biapenem MIC with Compound I (5 μg/mL)", "result": 0.25, "unit": "µg/mL"}, {"measurement": "MIC", "setting": "K. pneumoniae strains; four K. pneumoniae strains used in the infection models, read-out: Biapenem MICs", "result": "0.25 to 64", "unit": "µg/mL"}, {"measurement": "Change in Log CFU/thigh ± SD @ 24 h", "setting": "[1]; strain ATCC 43816, neutropenic mice", "result": "−1.09 ± 0.30", "unit": "Log CFU/thigh"}, {"measurement": "Change in Log CFU/thigh ± SD @ 24 h", "setting": "[1]; strain KP1004, neutropenic mice", "result": "+0.71 ± 0.10 Log CFU/thigh"}, {"measurement": "Change in Log CFU/thigh ± SD @ 24 h", "setting": "[1]; strain KP1061, neutropenic mice", "result": "+1.67 ± 0.09 Log CFU/thigh"}, {"measurement": "Change in Log CFU/thigh ± SD @ 24 h", "setting": "[1]; strain KP1074, neutropenic mice", "result": "+0.98 ± 0.46 Log CFU/thigh"}]}
